From patent US11407825B2, “NaPi2b-targeted polymer antibody-drug conjugates and methods of use thereof” (Mersana Therapeutics, Inc., priority 2018, dated 2022)
Square brackets hold non-standard residues; d marks the D form. Peptide text beside a SMILES is read from it. * marks the point of attachment. Dolaproine = CO[C@@H]([C@@H]1CCCN1)[C@@H](C)C(=O)O; Dil = CC[C@H](C)[C@H](NC)[C@@H](CC(=O)O)OC; NMe2Val = CC(C)[C@@H](C(=O)*)N(C)C; NH(3-hydroxypropyl) = OCCCN*

Assay: Plasma PK profile in patients dosed with XMT-1536
Format: in vivo, human
Conditions: after XMT-1536
Method: The PK profile of the active ingredient of XMT-1536, its release product and selected metabolites are determined for each patient by non-compartmental analysis using standard PK software (e.g., Phoenix WinNonlin). PK parameters per patient include time of maximum observed concentration (tmax), maximum concentration (Cmax), and area under the concentration curve for the last measurable concentration (AUC0-last). When the terminal elimination phase is identified, additional parameters such as elimination half-life, clearance, and volume of distribution are determined.
The plasma PK profile for the analytes (total antibody; conjugated drug (AF-HPA); free drug (AF-HPA) and the drug metabolite auristatin F (AF)) was determined in blood samples from 30 patients (3 mg/m^2, n=1; 6 mg/m^2, n=1; 12 mg/m^2, n=7; 20 mg/m^2, n=15; 30 mg/m^2, n=5; 40 mg/m^2, n=1). […] The PK characteristics is consistent with that reported for other approved antibody-drug conjugates or those currently in clinical development.

| SMILES | accumulation after administration of multiple doses | systemic exposure compared to that of the conjugated drug |
| --- | --- | --- |
| CC[C@H](C)[C@@H]([C@@H](CC(=O)N1CCC[C@H]1[C@H](OC)[C@@H](C)C(=O)N[C@@H](Cc1ccccc1)C(=O)NCCCO)OC)N(C)C(=O)[C@@H](NC(=O)[C@H](C(C)C)N(C)C)C(C)C [AF-HPA, Auristatin F-hydroxypropyl amide] (NMe2Val-V[Dil][Dolaproine]F-{NH(3-hydroxypropyl)}) | no accumulation | low systemic expose |
| CC[C@H](C)[C@@H]([C@@H](CC(=O)N1CCC[C@H]1[C@H](OC)[C@@H](C)C(=O)N[C@@H](Cc1ccccc1)C(=O)O)OC)N(C)C(=O)[C@@H](NC(=O)[C@H](C(C)C)N(C)C)C(C)C [AF, auristatin F] (NMe2Val-V[Dil][Dolaproine]F-OH) | no accumulation | low systemic expose |
